Results: patent US20260069641A1, “GRAM-NEGATIVE BACTERIA FOR USE IN THE PREVENTION AND TREATMENT OF DISEASE IN POULTRY” (priority 2024, published 2026)

Test system: Eimeria acervulina, Eimeria maxima, and Eimeria tenella
Assay: Second study: floor-pen broilers, cocci-challenge plus built-up litter, dried bacterial biomass in feed, 28 days
Assay type: in vivo, broiler chickens
Settings: column F of the chart

CC[C@@]1([C@@H]2O[C@@H]([C@H]3O[C@@](O)(CO)[C@H](C)C[C@@H]3C)C[C@@H]2C)CC[C@H]([C@]2(C)CC[C@]3(C[C@H](O)[C@@H](C)[C@@H]([C@@H](C)[C@@H](OC)[C@H](C)C(=O)O)O3)O2)O1 [Coban, Monensin]
Lesion Score Ileum Day 28: 0.325
